Source: patent US7763728B2, “Tetrahydropyridothiophenes” (4SC AG, priority 2005, dated 2010)

Columns and labels:
[1] = system: RKO (RKOp27) human colon adenocarcinoma cells; assay: Alamar Blue cell viability assay, anti-proliferative/cytotoxic activity on proliferating (uninduced) RKOp27 cells; format: cell-based; conditions: 72 hours incubation, absence of the inducer Ponasterone A, read-out: IC50 RKO p27 uninduced (proliferating)
Protocol: The anti-proliferative/cytotoxic activity of the compounds described herein, can be tested on subclones of RKO (RKOp27) human colon adenocarcinoma cells (Schmidt et al., Oncogene 19, 2423-2429; 2000) using the Alamar Blue cell viability assay (described in O'Brien et al. Eur J Biochem 267, 5421-5426, 2000). The compounds are dissolved as 20 mM solutions in dimethylsulfoxide (DMSO) and subsequently diluted in semi-logarithmic steps. DMSO dilutions are further diluted 1:100 into Dulbecco's modified Eagle's medium (DMEM) containing 10% fetal calf serum to a final concentration twice as much as the final concentration in the test. RKO subclones are seeded into 96 well flat bottom plates at a density of 5000 cells per well in a volume of 50 μl per well. 24 hours after seeding the 50 μl each of the compound dilutions in DMEM medium are added into each well of the 96 Well plate. Each compound dilution is tested as quadruplicates. Wells containing untreated control cells are filled with 50 μl DMEM medium containing 1% DMSO. The cells are then incubated with the substances for 72 hours at 37° C. in a humified atmosphere containing 5% carbon dioxide. To determine the viability of the cells, 10 μl of an Alamar Blue solution (Biosource) are added and the fluorescence is measured at an extinction of 544 nm and an emission of 590 nm. For the calculation of the cell viability the emission value from untreated cells is set as 100% viability and the emission rates of treated cells are set in relation to the values of untreated cells. Viabilities are expressed as % values.
The corresponding IC50 values of the compounds for anti-proliferative/cytotoxic activity are determined from the concentration-effect curves.
Representative IC50 values for anti-proliferation/cytotoxicity determined in the mentioned assay follow from the following table A, in which the numbers of the compounds correspond to the numbers of the examples.

[2] = system: RKO colon adenocarcinoma cells (RKOp27) arrested by the expression of ectopic p27Kip1; assay: Alamar Blue cell viability assay on RKOp27 cells arrested by p27Kip1 expression induced by Ponasterone A; format: cell-based; conditions: Homo sapiens, 72 hours incubation, 10 μM Ponasterone A, read-out: IC50 RKO p27 induced (arrested)
Protocol: To determine the cell cycle specific mode of action, subclones of RKO colon adenocarcinoma cells (RKOp27 or RKOp21 as described by Schmidt et al. in Oncogene 19, 2423-2429; 2000) are seeded into 96 well flat bottom plates at a density of 15000 cells per well in a volume of 50 μl per well in DMEM growth medium with 10% FCS containing 10 μM Ponasterone A. 24 hours after seeding the 50 μl each of the compound dilutions in DMEM medium are added into each well of the 96 Well plate. Each compound dilution is tested as quadruplicates. Wells containing untreated control cells are filled with 50 μl DMEM medium containing 1% DMSO. The cells are then incubated with the substances for 72 hours at 37° C. in a humidified atmosphere containing 5% carbon dioxide. To determine the viability of the cells, 10 μl of an Alamar Blue solution (Biosource) are added and the fluorescence was measured at an extinction of 544 nm and an emission of 590 nm. For the calculation of the cell viability the emission value from untreated cells is set as 100% viability and the emission rates of treated cells are set in relation to the values of untreated cells. Viabilities are expressed as % values. Viability is compared of proliferating cells grown in the absence of the inducer Ponasterone A, versus viability of cells arrested by the expression of ectopic p27Kip1 induced by Ponasterone A.

Row | SMILES | IC50 [1] | IC50 [2]
1 | COc1ccccc1CCC(=O)Nc1sc2c(c1C#N)CCN(C(=O)Cc1cccnc1)C2 [Example 2, N-[3-Cyano-6-(2-pyridin-3-yl-ethanoyl)-4,5,6,7-tetrahydro-thieno[2,3-c]pyridin-2-yl]-3-(2-methoxy-phenyl)-propionamide] | ≤ 0.3 µM | ≥ 40 µM
2 | CCOc1ccccc1C(C)CC(=O)Nc1sc2c(c1C#N)CCN(C(=O)Cn1ccnc1)C2 (racemic) [Example 83, (RS)—N-[3-Cyano-6-(2-imidazol-1-yl-ethanoyl)-4,5,6,7-tetrahydro-thieno[2,3-c]pyridin-2-yl]-3-(2-ethoxy-phenyl)-butyramide] | ≤ 0.3 µM | ≥ 40 µM
3 | COc1ccc(C)cc1CCC(=O)Nc1sc2c(c1C#N)CCN(C(=O)Cn1ccnc1)C2 [Example 86, N-[3-Cyano-6-(2-imidazol-1-yl-ethanoyl)-4,5,6,7-tetrahydro-thieno[2,3-c]pyridin-2-yl]-3-(2-methoxy-5-methyl-phenyl)-propionamide] | 0.3 to 2 µM | ≥ 40 µM
4 | CCOc1ccccc1C(C)CC(=O)Nc1sc2c(c1C#N)CCN(C(=O)Cc1cccnc1)C2 (racemic) [Example 67, (RS)—N-[3-Cyano-6-(2-pyridin-3-yl-ethanoyl)-4,5,6,7-tetrahydro-thieno[2,3-c]pyridin-2-yl]-3-(2-ethoxy-phenyl)-butyramide] | ≤ 0.3 µM | > 100 µM
5 | COCCOCC(=O)N1CCc2c(sc(NC(=O)CCc3ccccc3OC)c2C#N)C1 [Example 6, N-{3-Cyano-6-[2-(2-methoxy-ethoxy)-ethanoyl]-4,5,6,7-tetrahydro-thieno[2,3-c]pyridin-2-yl}-3-(2-methoxy-phenyl)-propionamide] | 0.3 to 2 µM | ≥ 40 µM
6 | COc1ccccc1CCC(=O)Nc1sc2c(c1C#N)CCN(C(=O)Cn1ccnc1C)C2 [Example 130, N-{3-Cyano-6-[2-(2-methyl-imidazol-1-yl)-ethanoyl]-4,5,6,7-tetrahydro-thieno[2,3-c]pyridin-2-yl}-3-(2-methoxy-phenyl)-propionamide] | ≤ 0.3 µM | ≥ 40 µM
7 | COc1cccc(CCC(=O)Nc2sc3c(c2C#N)CCN(C(=O)CC(C)n2ccnc2)C3)c1 (racemic) [Example 57, N-[3-Cyano-6-((RS)-3-imidazol-1-yl-butanoyl)-4,5,6,7-tetrahydro-thieno[2,3-c]pyridin-2-yl]-3-(3-methoxy-phenyl)-propionamide] | 0.3 to 2 µM | ≥ 40 µM
8 | COc1ccc(C)cc1CCC(=O)Nc1sc2c(c1C#N)CCN(C(=O)CCc1ccccn1)C2 [Example 96, N-[3-Cyano-6-(3-pyridin-2-yl-propanoyl)-4,5,6,7-tetrahydro-thieno[2,3-c]pyridin-2-yl]-3-(2-methoxy-5-methyl-phenyl)-propionamide] | 0.3 to 2 µM | > 100 µM
9 | COCCC(=O)N1CCc2c(sc(NC(=O)CCc3cccc(OC)c3)c2C#N)C1 [Example 12, N-[3-Cyano-6-(3-methoxy-propanoyl)-4,5,6,7-tetrahydro-thieno[2,3-]pyridin-2-yl]-3-(3-methoxy-phenyl)-propionamide] | 0.3 to 2 µM | > 100 µM
10 | COc1ccccc1C(C)CC(=O)Nc1sc2c(c1C#N)CCN(C(=O)CCc1ccccn1)C2 (racemic) [Example 94, (RS)—N-[3-Cyano-6-(3-pyridin-2-yl-propanoyl)-4,5,6,7-tetrahydro-thieno[2,3-c]pyridin-2-yl]-3-(2-methoxy-phenyl)-butyramide] | 0.3 to 2 µM | > 100 µM
11 | COc1ccc(C)cc1CCC(=O)Nc1sc2c(c1C#N)CCN(C(=O)CCn1ccnc1C)C2 [Example 110, N-{3-Cyano-6-[3-(2-methyl-imidazol-1-yl)-propanoyl]-4,5,6,7-tetrahydro-thieno[2,3-c]pyridin-2-yl}-3-(2-methoxy-5-methyl-phenyl)-propionamide] | 0.3 to 2 µM | ≥ 10 µM
12 | COc1cccc(C(C)CC(=O)Nc2sc3c(c2C#N)CCN(C(=O)Cc2ccccn2)C3)c1 (stereo not shown) [Example 58, N-[3-Cyano-6-(2-pyridin-2-yl-ethanoyl)-4,5,6,7-tetrahydro-thieno[2,3-c]pyridin-2-yl]-3-(3-methoxy-phenyl)-butyramide] | 0.3 to 2 µM | > 100 µM
13 | COCC(=O)N1CCc2c(sc(NC(=O)CCc3ccccc3OC)c2C#N)C1 [Example 5, N-[3-Cyano-6-(2-methoxy-ethanoyl)-4,5,6,7-tetrahydro-thieno[2,3-c]pyridin-2-yl]-3-(2-methoxy-phenyl)-propionamide] | ≤ 0.3 µM | > 100 µM
14 | COc1ccccc1CCC(=O)Nc1sc2c(c1C#N)CCN(C(=O)CCc1cccnc1)C2 [Example 1, N-[3-Cyano-6-(3-pyridin-3-yl-propanoyl)-4,5,6,7-tetrahydro-thieno[2,3-c]pyridin-2-yl]-3-(2-methoxy-phenyl)-propionamide] | ≤ 0.3 µM | > 100 µM
15 | COc1ccccc1CCC(=O)Nc1sc2c(c1C#N)CCN(C(=O)Cc1ccncc1)C2 [Example 3, N-[3-Cyano-6-(2-pyridin-4-yl-ethanoyl)-4,5,6,7-tetrahydro-thieno[2,3-c]pyridin-2-yl]-3-(2-methoxy-phenyl)-propionamide] | ≤ 0.3 µM | ≥ 40 µM
16 | CCOc1ccccc1CCC(=O)Nc1sc2c(c1C#N)CCN(C(=O)CCn1ccnc1C)C2 [Example 109, N-{3-Cyano-6-[3-(2-methyl-imidazol-1-yl)-propanoyl]-4,5,6,7-tetrahydro-thieno[2,3-c]pyridin-2-yl}-3-(2-ethoxy-phenyl)-propionamide] | ≤ 0.3 µM | ≥ 10 µM
17 | CCCC(=O)N1CCc2c(sc(NC(=O)CCc3ccccc3OC)c2C#N)C1 [Example 91, N-(6-Butyryl-3-cyano-4,5,6,7-tetrahydro-thieno[2,3-c]pyridin-2-yl)-3-(2-methoxy-phenyl)-propionamide] | ≤ 0.3 µM | > 100 µM
18 | COc1cccc(CCC(=O)Nc2sc3c(c2C#N)CCN(C(=O)Cn2ccnc2C)C3)c1 [Example 129, N-{3-Cyano-6-[2-(2-methyl-imidazol-1-yl)-ethanoyl]-4,5,6,7-tetrahydro-thieno[2,3-c]pyridin-2-yl}-3-(3-methoxy-phenyl)-propionamide] | 0.3 to 2 µM | ≥ 40 µM
19 | COc1ccc(C)cc1CCC(=O)Nc1sc2c(c1C#N)CCN(C(=O)Cc1cccnc1)C2 [Example 37, N-[3-Cyano-6-(2-pyridin-3-yl-ethanoyl)-4,5,6,7-tetrahydro-thieno[2,3-c]pyridin-2-yl]-3-(2-methoxy-5-methyl-phenyl)-propionamide] | ≤ 0.3 µM | > 100 µM
20 | COc1ccccc1CCC(=O)Nc1sc2c(c1C#N)CCN(C(=O)Cc1ccccn1)C2 [Example 59, N-[3-Cyano-6-(2-pyridin-2-yl-ethanoyl)-4,5,6,7-tetrahydro-thieno[2,3-c]pyridin-2-yl]-3-(2-methoxy-phenyl)-propionamide] | ≤ 0.3 µM | ≥ 40 µM
21 | COc1ccccc1CCC(=O)Nc1sc2c(c1C#N)CCN(C(=O)CCc1ccncc1)C2 [Example 122, N-[3-Cyano-6-(3-pyridin-4-yl-propanoyl)-4,5,6,7-tetrahydro-thieno[2,3-c]pyridin-2-yl]-3-(2-methoxy-phenyl)-propionamide] | ≤ 0.3 µM | > 100 µM
22 | CCOc1ccccc1CCC(=O)Nc1sc2c(c1C#N)CCN(C(=O)CCc1cccnc1)C2 [Example 22, N-[3-Cyano-6-(3-pyridin-3-yl-propanoyl)-4,5,6,7-tetrahydro-thieno[2,3-c]pyridin-2-yl]-3-(2-ethoxy-phenyl)-propionamide] | ≤ 0.3 µM | > 100 µM
23 | COc1ccccc1C(C)CC(=O)Nc1sc2c(c1C#N)CCN(C(=O)CCc1ccncc1)C2 (racemic) [Example 120, (RS)—N-[3-Cyano-6-(3-pyridin-4-yl-propanoyl)-4,5,6,7-tetrahydro-thieno[2,3-c]pyridin-2-yl]-3-(2-methoxy-phenyl)-butyramide] | ≤ 0.3 µM | ≥ 10 µM
